This note sets out measurements from patent US20150140015A1, “METHODS AND PHARMACEUTICAL COMPOSITIONS FOR THE TREATMENT OF PANCREATIC CANCER” (INSERM (Institut National de la Sante et de la Recherche …, priority 2013, published 2015).

What all share (assay type): cell-based, human
One assay has as its system parental HPAF-II cells. Kind of assay: Activated caspase-3 immunostaining in parental HPAF-II cells. Particulars: 1 μM orexin-A, 48 hr. On the procedure: (§1) FIGS. 5A and B. Effect of orexin-A on apoptosis in OX1R expressing recombinant OX1R/HPAF-II cells. A, Parental HPAF-II and recombinant OX1R/HPAF-II cells were challenged with (black bars) or without (white bars) 1 μM orexin-A for 48 hr in the absence or presence of the SHP-2 protein tyrosine phosphatase inhibitor, NSC-87877 (50 μM). Apoptosis was measured by determination of annexin V-PE binding. Results are expressed as the percentage of apoptotic cells, and are the means±SE of three separate experiments. ***p<0.001; ns, non-significant; B, paraformaldehyde-fixed HPAF-II cells and recombinant OX1R/HPAF-II cells were challenged with or without (Basal) 1 μM orexin-A for 48 hr. […]
After dewaxing, rehydrating tumor paraffin sections, and antigen retrieval by pretreatment with high temperature at pH 9, immunohistochemical procedures were carried out using an automated immunohistochemical stainer according to the manufacturer's guidelines (Bond-Max slide stainer, Menarini, Leica Microsystems). […] OX1R immunostaining was evaluated by two investigators (TV and AC) by calculating a score (0-300) obtained by multiplying the intensity (negative, 0; weak, 1; moderate, 2; and strong, 3) by the percentage of stained cells. The pattern of expression (cytoplasmic, membranous, and nuclear) was also recorded, and a mean score was calculated for each tumor. […]

Assay [1] concerns HPAF-II cells expressing recombinant OX1R. Kind of assay: Quantification of apoptotic cells by annexin V-PE labeling in recombinant OX1R/HPAF-II cells. As to conditions: 1 μM orexin-A, 48 hr; recombinant HPAF-II expressing OX1R. How it is done:
as §1, with “hr. Indirect immunostaining of activated caspase-3 in parental HPAF-II cells (left panels) and recombinant OX1R/HPAF-II cells (right panels) in the presence (bottom panels) or tabsence (top panels) of orexin-A is illustrated in B.” for “hr.”
AsPC-1, SW 1990, HPAF-II and HPAF-II/hOX1R cells (seeded at 5×10^4 cells/well) were grown in 24-well plates for 24 hr under the culture conditions described above. […] Results are expressed as the percentage of apoptotic phycoerythrin-labelled Annexin V (Annexin V-PE) positive cells and are the means of 3 independent analyses.

A further assay concerns AsPC-1 cells. Kind of assay: Cell growth of AsPC-1 cells (cell counting). Particulars: Example 1; Orexin-A treatment of the OX1R-expressing AsPC-1 cell line. On the procedure:
FIG. 9. Effect of Orexin-B anti-OX1R antibodies on cell growth of AsPC-1 cells. Cells were incubated with 0.1 μM of OxB or antibodies for 48 h in culture medium and then cells were counted in order to estimate the cellular growth.
The aims of this study were: 1/ to investigate the presence of OX1R in human PAC cell lines and to analyze orexin-A effects in relation to apoptosis; 2/ to develop an in vivo heterotopic xenograft model from the cell lines expressing OX1R, for the study of tumor growth in response to Orexin-A. The expression of OX1R was studied at mRNA (RT-PCR), proteins (immunocytochemistry) and functional levels in 3 PAC cell lines (AsPC-1, HPAF-II and SW1990). The development of an animal model (heterotopic xenograft) from the cell line expressing OX1R, has allowed studying the effect of Orexin-A in tumor growth. Resected tumors were analyzed by immunohistochemistry. Only AsPC-1 cell line expresses OX1R.
The development of antibodies directed against OX1R were produced by a phage display strategy and the antibody selection was performed by using HEK and HEK stably expressing OX1R (HEK-OX1R) cell lines. […] Cells were incubated with 0.1 μM of OxB or antibodies for 48 h in culture medium and then cells were counted in order to estimate the cellular growth. […]

For the substance “orexin-A: 33 amino acid hypothalamic neuropeptide, OX1R agonist, SEQ ID NO:2; peptide from GL Biochemicals”, the caspase-3 activation entry in the assay with parental HPAF-II cells is listed as “no activation”. In addition, the “annexin-V positive apoptotic cells” value in assay [1] is recorded as 17.8%. The cell growth inhibition with AsPC-1 cells turned out to be 32%.
